pIC50, pKd: −log10 of the molar value. Like-named read-outs stand apart in the source and are kept apart here.
What was measured:
CpG DNA = assay: Affinity biosensor binding with immobilized CpG DNA; settings: for affinity / binding with CpG DNA: 4 μM solution; for affinity / binding with CpG DNA / affinity with CpG DNA: 5 μl loaded; for affinity with CpG DNA: 100 μM operating solution
Text: Immobilization of lipid A and CpG DNA: Using Optically-Based Affinity Biosensors technology, Lipid A, the biologic active centres of LPS, and CpG DNA were respectively, immobilized on the reacting surfaces of cuvettes in an IAsys plus affinity biosensor according to the manufacturer's instructions of IAsys Affinity Sensor. The end of hydrophobic side chain of lipid A was immobilized on cuvette with hydrophobic surface, and the phosphate group (active group of lipid A) at the other end was floating and exposing to the outside, which act as target spot of binding with active constituents for disease treatment in traditional Chinese medicine. The active constituents in solution were binded to lipid A through electrostatic interaction. Biotinylated CpG DNA was immobilized on the surface of a biotin cuvette by linking to avidin, which had been coated on the surface of a biotin cuvette, and then the unlabeled group of CpG DNA was floating and exposing to the outside, which act as target spot of binding with active constituents for disease treatment in traditional Chinese medicine. The active constituents in solution were binded to CpG DNA through the electrostatic interaction and embodiment.
Detection of the aqueous herbal extract: The crude drugs of 114 traditional Chinese herbs were pulverized. 1 g of each powder was added with 10 ml distilled water, boiled at 100° C. for 1.5 h, centrifuged at 4000 rpm for 20 min, filtrated and then collected the supernatant. 5 μl of aqueous herbal extracts of each herb were used to detect their binding with lipid A or CpG DNA. Here are the steps: Binding reaction: 45 μl PBS was added in cuvette; then 5 μl samples was added in cuvette; liquid were draw-out after binding response reach a plateau; Dissociation: Cuvette was washed thrice in 50 μl PBS; liquid were draw-out after dissociation reach a plateau; Regeneration: Cuvette was washed thrice in 50 μl 0.1N HCl; liquid were draw-out after regeneration reach a plateau; Cuvette was washed thrice in 50 μl PBS; next cycle was started to detect new sample after curves back to baseline levels and smoothed. Data analysis was performed using the FASTplot software after detection finished.
2.1.1 Methods: 500 g Lycii cortex was added with 5 L distilled water, soaked for 24 h, boiled at 100 for 1 h, filtered by coarse filter paper, and centrifuged at 8000 rpm/min for 30 min, and the supernatant was collected and concentrated to 1 L under reduced pressure. The supernatant was loaded onto AB-8 Macroporous adsorption resin, and eluted with distilled water and gradient ethanol (10%, 20%, 40% and 100%) successively. The eluted fractions were separately collected, and lyophilized after concentrated under reduced pressure. Five constituents were obtained, and named CL-1 to -5 according to their elution order. CL constituents were separately dissolved in PBS to make 1.0 mg/ml solution, 5 μl of which were loaded. Their binding activity with lipid A and CpG DNA were detected according to methods of embodiment 1.
2.2.1 Methods: CL-4 lyophilization powder was diluted into ultrapure water to make 100 mg/ml solution, filtered by a 0.45 μm filter membrane, loaded onto D001 cationic exchange gel column, and eluted with distilled water, 0.3 M Na2HPO4 and 0.5 M Na2HPO4 successively. The eluted fractions were separately collected, and lyophilized after concentrated under reduced pressure. Three constituents were obtained, and named CL-4a, -4b and -4c according to their elution order. CL-4 constituents were separately dissolved in PBS to make 1.0 mg/ml solution, 5 μl of which were loaded. Their binding activity with lipid A and CpG DNA were detected according to methods of embodiment 1.
3.1 Methods: KA and KB were separately dissolved to make 100 μM operating solution; 5 μl of the solution was loaded; their binding activity with lipid A and CpG DNA were detected according to methods of embodiment 1. […]

[1] = Neutralization of LPS in vitro (TAL / kinetic turbidimetric limulus test); type: biochemical; settings: for pIC50: LPS 2 ng/ml, 0.5-128 μM, read-out: Half inhibitory concentration (IC50) on LPS; for neutralizing activity with LPS: 1, 2 and 4 μg/ml with equal volume of LPS (2.0 ng/ml), 30 min, p<0.05 or p<0.01, dose-dependent
Experimental: 2.3.1 Methods: CL-4b was dissolved into LPS-free water to make 8 μg/ml solution, and incubated with equal volume of LPS (1 ng/mL) at 37° C. for 30 min. Subsequently, 100 μl mixed solution of CL-4b and LPS was added with equal volume of the quantitative TAL reagents dissolved in LPS-free water, gently shaked to mix the contents, and reacted at 37° C. for 60 min in kinetic tube reader. The agglutination of TAL reagent induced by the existence of non-neutralized LPS was measured. The mixture of LPS and equal volume of LPS-free water act as positive control. Each group contained three repeated tubes. The result was expressed in EU/ml, the endotoxin unit of LPS. Operation was performed according to the manufacturer's instructions of EDS-99 Bacterial Endotoxin Detecting system.
4.1 Methods: KA and KB (1, 2 and 4 μg/ml) were separately mixed with equal volume of LPS (2.0 ng/ml) and pre-incubated at 37 for 30 min; LPS control group was added with equal volume of nonpyrogenic water; LPS value was detected by kinetic turbidimetric limulus test after incubation; detection of each concentration was repeated three times; LPS content was expressed by means of mean±standard deviation; operation was performed according to the manufacturer's instructions of EDS-99 Bacterial Endotoxin Detecting system.
11.1 Methods: KB and PMB were separately diluted with LPS-free water to make solutions of 0.5, 1, 2, 4, 8, 16, 32, 64 and 128 μM; according to the methods in embodiment 4, above solutions were separately mixed with equal volume of LPS (2 ng/ml), and neutralizing activity was assayed.

Compound | affinity / binding with CpG DNA (CpG DNA) | pIC50 [1] | affinity with CpG DNA (CpG DNA) | neutralizing activity with LPS [1] | pKd (CpG DNA; KB 0.25-4 μM, IAsys FASTfit, read-out: dissociation equilibrium constant (KD) with CpG DNA) | pKd (CpG DNA; with CpG DNA, read-out: dissociation equilibrium constant (KD = kass/kdiss))
polymyxin B [PMB, reference compound] | almost has no binding effects | 5.32 |  |  |  | 
O=C(CCc1ccc(O)c(O)c1)NCCCNCCCCNCCCNC(=O)CCc1ccc(O)c(O)c1 [KA, Kukoamine A] |  |  | high affinity | significant neutralizing activity |  | 
NCCCN(CCCCNCCCNC(=O)CCc1ccc(O)c(O)c1)C(=O)CCc1ccc(O)c(O)c1 [KB, Kukoamine B] | high affinity | 4.83 | high affinity | significant neutralizing activity | 6.18 | 6.18
